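48-hour exposure; five concentrations; linearly interpolated endpoints. GI50 = concentration required for 50% inhibition of growth. Definition used: TGI = concentration required for complete inhibition of growth.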
Assays:
Assay in all cases: NCI tumour cell line growth inhibition, 48 h
KM12 colon = system: KM12 colon
OVCAR-4 ovarian = system: OVCAR-4 ovarian
PC-3 prostate = system: PC-3 prostate
HOP-92 NSCLC = system: HOP-92 NSCLC
NCI-H23 lung = system: NCI-H23 lung
RPMI-8226 leukemia = system: RPMI-8226 leukemia
A498 renal = system: A498 renal
OVCAR-5 ovarian = system: OVCAR-5 ovarian
HOP-62 NSCLC = system: HOP-62 NSCLC
HCT-15 colon = system: HCT-15 colon
T-47D breast = system: T-47D breast
COLO 205 colon = system: COLO 205 colon
UACC-257 melanoma = system: UACC-257 melanoma
UO-31 renal = system: UO-31 renal
BT-549 breast = system: BT-549 breast
786-0 renal = system: 786-0 renal
SR leukemia = system: SR leukemia
SF-268 CNS = system: SF-268 CNS
SK-MEL-28 melanoma = system: SK-MEL-28 melanoma
SNB-19 CNS = system: SNB-19 CNS
EKVX NSCLC = system: EKVX NSCLC
HCT-116 colon = system: HCT-116 colon
SK-MEL-2 melanoma = system: SK-MEL-2 melanoma
NCI-H226 lung = system: NCI-H226 lung
OVCAR-3 ovarian = system: OVCAR-3 ovarian
IGROV1 ovarian = system: IGROV1 ovarian
SF-295 CNS = system: SF-295 CNS
K-562 leukemia = system: K-562 leukemia
OVCAR-8 ovarian = system: OVCAR-8 ovarian
SK-MEL-5 melanoma = system: SK-MEL-5 melanoma
MOLT-4 leukemia = system: MOLT-4 leukemia
U251 CNS = system: U251 CNS
ACHN renal = system: ACHN renal
NCI/ADR-RES ovarian = system: NCI/ADR-RES ovarian
M14 melanoma = system: M14 melanoma
MCF7 breast = system: MCF7 breast
SNB-75 CNS = system: SNB-75 CNS
MDA-MB-231 breast = system: MDA-MB-231 breast
NCI-H522 lung = system: NCI-H522 lung
SK-OV-3 ovarian = system: SK-OV-3 ovarian
MALME-3M melanoma = system: MALME-3M melanoma
HL-60(TB) leukemia = system: HL-60(TB) leukemia
CCRF-CEM leukemia = system: CCRF-CEM leukemia
SW-620 colon = system: SW-620 colon
RXF 393 renal = system: RXF 393 renal
UACC-62 melanoma = system: UACC-62 melanoma
HT29 colon = system: HT29 colon
SF-539 CNS = system: SF-539 CNS
TK-10 renal = system: TK-10 renal
LOX IMVI melanoma = system: LOX IMVI melanoma
A549 NSCLC = system: A549 NSCLC
CAKI-1 renal = system: CAKI-1 renal
NCI-H460 lung = system: NCI-H460 lung
HS 578T breast = system: HS 578T breast
HCC-2998 colon = system: HCC-2998 colon
SN12C renal = system: SN12C renal
DU-145 prostate = system: DU-145 prostate

SMILES: O=C(N/N=C/c1ccc[nH]1)c1[nH]c2ccc(Br)cc2c1-c1ccccc1
- GI50 (KM12 colon): 477 nM
- TGI (KM12 colon): 6080 nM
- GI50 (OVCAR-4 ovarian): 954 nM
- TGI (OVCAR-4 ovarian): 12100 nM
- GI50 (PC-3 prostate): 441 nM
- TGI (PC-3 prostate): 8150 nM
- GI50 (HOP-92 NSCLC): 1770 nM
- TGI (HOP-92 NSCLC): 9770 nM
- GI50 (NCI-H23 lung): 456 nM
- TGI (NCI-H23 lung): 11300 nM
- GI50 (RPMI-8226 leukemia): 400 nM
- TGI (RPMI-8226 leukemia): 10700 nM
- GI50 (A498 renal): 6360 nM
- TGI (A498 renal): 21900 nM
- GI50 (OVCAR-5 ovarian): 489 nM
- TGI (OVCAR-5 ovarian): 10700 nM
- GI50 (HOP-62 NSCLC): 526 nM
- TGI (HOP-62 NSCLC): 8930 nM
- GI50 (HCT-15 colon): 297 nM
- TGI (HCT-15 colon): 10900 nM
- GI50 (T-47D breast): 319 nM
- TGI (T-47D breast): 7250 nM
- GI50 (COLO 205 colon): 298 nM
- TGI (COLO 205 colon): 1320 nM
- GI50 (UACC-257 melanoma): 688 nM
- TGI (UACC-257 melanoma): 13700 nM
- GI50 (UO-31 renal): 489 nM
- TGI (UO-31 renal): 5740 nM
- GI50 (BT-549 breast): 416 nM
- TGI (BT-549 breast): 2420 nM
- GI50 (786-0 renal): 669 nM
- TGI (786-0 renal): 7370 nM
- GI50 (SR leukemia): 273 nM
- GI50 (SF-268 CNS): 1570 nM
- TGI (SF-268 CNS): 9840 nM
- GI50 (SK-MEL-28 melanoma): 653 nM
- TGI (SK-MEL-28 melanoma): 16100 nM
- GI50 (SNB-19 CNS): 423 nM
- TGI (SNB-19 CNS): 11500 nM
- GI50 (EKVX NSCLC): 881 nM
- TGI (EKVX NSCLC): 9160 nM
- GI50 (HCT-116 colon): 318 nM
- TGI (HCT-116 colon): 11000 nM
- GI50 (SK-MEL-2 melanoma): 379 nM
- TGI (SK-MEL-2 melanoma): 13900 nM
- GI50 (NCI-H226 lung): 398 nM
- TGI (NCI-H226 lung): 2780 nM
- GI50 (OVCAR-3 ovarian): 477 nM
- TGI (OVCAR-3 ovarian): 12400 nM
- GI50 (IGROV1 ovarian): 460 nM
- TGI (IGROV1 ovarian): 4100 nM
- GI50 (SF-295 CNS): 243 nM
- TGI (SF-295 CNS): 1020 nM
- GI50 (K-562 leukemia): 253 nM
- TGI (K-562 leukemia): 29800 nM
- GI50 (OVCAR-8 ovarian): 361 nM
- TGI (OVCAR-8 ovarian): 3420 nM
- GI50 (SK-MEL-5 melanoma): 344 nM
- TGI (SK-MEL-5 melanoma): 1600 nM
- GI50 (MOLT-4 leukemia): 437 nM
- TGI (MOLT-4 leukemia): 13400 nM
- GI50 (U251 CNS): 349 nM
- TGI (U251 CNS): 4570 nM
- GI50 (ACHN renal): 516 nM
- TGI (ACHN renal): 5880 nM
- GI50 (NCI/ADR-RES ovarian): 316 nM
- TGI (NCI/ADR-RES ovarian): 2190 nM
- GI50 (M14 melanoma): 322 nM
- TGI (M14 melanoma): 10700 nM
- GI50 (MCF7 breast): 178 nM
- TGI (MCF7 breast): 2410 nM
- GI50 (SNB-75 CNS): 187 nM
- TGI (SNB-75 CNS): 3830 nM
- GI50 (MDA-MB-231 breast): 572 nM
- TGI (MDA-MB-231 breast): 6090 nM
- GI50 (NCI-H522 lung): 92.7 nM
- TGI (NCI-H522 lung): 515 nM
- GI50 (SK-OV-3 ovarian): 614 nM
- TGI (SK-OV-3 ovarian): 9890 nM
- GI50 (MALME-3M melanoma): 410 nM
- TGI (MALME-3M melanoma): 11500 nM
- GI50 (HL-60(TB) leukemia): 235 nM
- TGI (HL-60(TB) leukemia): 619 nM
- GI50 (CCRF-CEM leukemia): 385 nM
- TGI (CCRF-CEM leukemia): 11800 nM
- GI50 (SW-620 colon): 378 nM
- TGI (SW-620 colon): 13600 nM
- GI50 (RXF 393 renal): 339 nM
- TGI (RXF 393 renal): 10300 nM
- GI50 (UACC-62 melanoma): 191 nM
- TGI (UACC-62 melanoma): 1760 nM
- GI50 (HT29 colon): 324 nM
- TGI (HT29 colon): 4310 nM
- GI50 (SF-539 CNS): 219 nM
- TGI (SF-539 CNS): 590 nM
- GI50 (TK-10 renal): 1710 nM
- TGI (TK-10 renal): 13900 nM
- GI50 (LOX IMVI melanoma): 310 nM
- TGI (LOX IMVI melanoma): 4970 nM
- GI50 (A549 NSCLC): 345 nM
- TGI (A549 NSCLC): 6880 nM
- GI50 (CAKI-1 renal): 362 nM
- TGI (CAKI-1 renal): 9860 nM
- GI50 (NCI-H460 lung): 338 nM
- TGI (NCI-H460 lung): 1230 nM
- GI50 (HS 578T breast): 380 nM
- TGI (HS 578T breast): 19700 nM
- GI50 (HCC-2998 colon): 408 nM
- TGI (HCC-2998 colon): 4810 nM
- GI50 (SN12C renal): 410 nM
- TGI (SN12C renal): 3910 nM
- GI50 (DU-145 prostate): 489 nM
- TGI (DU-145 prostate): 12400 nM
